Drawing on ChEMBL document CHEMBL1129852, “Peptidyl -keto thiazole as potent thrombin inhibitors” (Bioorg Med Chem Lett, 1997), this text covers Ratio and IC50 for 19 molecules.

Usually IC50 stands for the point on the concentration scale where inhibition reaches its midpoint.

Bounds are passed on as bounds.

Assay [1] is described as follows: Relative inhibition of trypsin and thrombin. More on the design: reference not given here.
A further assay addresses T1, Serine protease 1 (Bos taurus, UniProt P00760).
T1 sequence (P00760 whole entry): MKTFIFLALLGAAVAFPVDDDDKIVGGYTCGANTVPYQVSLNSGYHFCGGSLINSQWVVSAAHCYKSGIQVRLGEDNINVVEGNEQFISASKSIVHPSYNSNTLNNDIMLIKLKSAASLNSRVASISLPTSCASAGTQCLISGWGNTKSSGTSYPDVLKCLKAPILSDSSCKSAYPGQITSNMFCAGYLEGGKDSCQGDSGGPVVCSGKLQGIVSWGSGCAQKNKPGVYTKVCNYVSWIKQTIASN
The assay can be described thus: Inhibition of trypsin.

In another assay the target is Prothrombin (Homo sapiens, UniProt P00734). The assay can be described thus: Inhibition of thrombin.
Assay [2] in a line: The compound was tested for the inhibitory activity against elastase enzyme. The class given is functional. The note with it: Homo sapiens.
Another assay has as its target Prolyl endopeptidase (Sus scrofa, UniProt P23687). The assay is described as follows: The compound was tested for the inhibitory activity against prolyl endo peptidase(PEP) enzyme.

Prolyl endopeptidase, sequence (P23687 whole entry): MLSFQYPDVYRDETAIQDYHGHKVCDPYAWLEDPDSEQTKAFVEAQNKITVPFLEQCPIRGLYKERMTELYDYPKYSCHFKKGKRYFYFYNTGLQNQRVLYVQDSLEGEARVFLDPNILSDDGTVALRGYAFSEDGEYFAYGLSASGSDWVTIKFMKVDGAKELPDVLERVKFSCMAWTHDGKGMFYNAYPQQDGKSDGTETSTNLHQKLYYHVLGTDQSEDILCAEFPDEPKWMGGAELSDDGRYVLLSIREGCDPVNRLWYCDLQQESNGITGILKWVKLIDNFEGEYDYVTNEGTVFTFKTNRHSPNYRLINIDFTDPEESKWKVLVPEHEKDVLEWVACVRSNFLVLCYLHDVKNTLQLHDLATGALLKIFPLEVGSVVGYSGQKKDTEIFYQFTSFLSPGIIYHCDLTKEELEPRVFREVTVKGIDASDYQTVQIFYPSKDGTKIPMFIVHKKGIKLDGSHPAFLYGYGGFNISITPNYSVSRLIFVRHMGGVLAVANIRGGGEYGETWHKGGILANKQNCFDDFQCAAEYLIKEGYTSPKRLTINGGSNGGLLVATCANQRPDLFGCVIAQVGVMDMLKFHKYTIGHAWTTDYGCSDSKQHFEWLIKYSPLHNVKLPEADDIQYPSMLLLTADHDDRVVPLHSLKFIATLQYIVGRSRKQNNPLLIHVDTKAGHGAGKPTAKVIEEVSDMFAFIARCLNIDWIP

Turning to `CC(=O)N[C@H](Cc1ccccc1)C(=O)N1CCC[C@H]1C(=O)N[C@H](CCCN=C(N)N)C(=O)c1nccs1`, the Ratio in assay [1] came to 0.1.

On to `NC(N)=NCCC[C@@H](NC(=O)[C@@H]1CCCCN1C(=O)[C@H](N)Cc1ccccc1)C(=O)c1nccs1`, for which the Ratio in assay [1] was determined as 56.

With `N=C(N)NCCC[C@H](NC(=O)[C@@H]1CCCCN1C(=O)[C@H](N)Cc1ccccc1)C(=O)c1nccs1`, the IC50 on Serine protease 1 turned out to be 41 µM.

Consider `N=C(N)NCCC[C@@H](NC(=O)[C@@H]1CCCN1C(=O)[C@@H](Cc1ccccc1)NC(=O)OCc1ccccc1)C(=O)c1nccs1`, for which the Ratio in assay [1] was found to be 0.8. Also, the IC50 turned out to be 0.002 µM at Prothrombin and 0.0016 µM against Serine protease 1.

Consider `CC(=O)N[C@H](Cc1ccccc1)C(=O)N1CCC[C@H]1C(=O)N[C@H](CCCNC(=N)N)C(=O)c1nccs1`, for which the IC50 came out at 2.3 µM against Prothrombin and 0.23 µM against Serine protease 1.

Regarding `CC(C)[C@@H](NC(=O)[C@H](N)Cc1ccccc1)C(=O)N[C@@H](CCCNC(=N)N)C(=O)c1nccs1`, the IC50 was determined as 0.0086 µM against Prothrombin and 0.18 µM at Serine protease 1.

Regarding `N=C(N)NCCC[C@@H](NC(=O)[C@@H]1CCCN1C(=O)CCc1ccccc1)C(=O)c1nccs1`, the Ratio in assay [1] was determined as 0.3. The IC50 against Prothrombin is 0.82 µM; against Serine protease 1, 0.23 µM.

In the case of `CC(C)[C@@H](NC(=O)[C@H](N)Cc1ccccc1)C(=O)N[C@@H](CCCN=C(N)N)C(=O)c1nccs1`, in assay [1], the Ratio stood at 21.

As for `N=C(N)NCCC[C@H](NC(=O)[C@@H]1CCCN1C(=O)CCCc1ccccc1)C(=O)c1nccs1`, the IC50 at Prothrombin was 2 µM; in assay [2], over 1 mM; on Prolyl endopeptidase, 28 µM; against Serine protease 1, 0.23 µM.

Turning to `N=C(N)NCCC[C@H](NC(=O)[C@@H]1CCN1C(=O)[C@H](N)Cc1ccccc1)C(=O)c1nccs1`, the figures for the IC50 on Prothrombin and at Serine protease 1 were 0.003 µM and 0.009 µM, respectively.

Regarding `CC(C)[C@H](NC(=O)[C@@H]1CCCN1C(=O)CCCc1ccccc1)C(=O)c1nccs1`, the IC50 against Prothrombin is over 1000 µM; in assay [2], over 1 mM; at Prolyl endopeptidase it was 7.7 µM; on Serine protease 1 it was over 1000 µM.

With `C[C@H](NC(=O)[C@@H]1CCCN1C(=O)CCCc1ccccc1)C(=O)c1nccs1`, the IC50 against Prothrombin is over 1000 µM; in assay [2] it was over 1 mM; at Prolyl endopeptidase, 0.005 µM; at Serine protease 1, over 1000 µM.

With `NC(N)=NCCC[C@H](NC(=O)[C@@H]1CCN1C(=O)[C@H](N)Cc1ccccc1)C(=O)c1nccs1`, the Ratio in assay [1] came out at 3.

As to `O=C(c1nccs1)[C@H]1CCCN1C(=O)[C@@H]1CCCN1C(=O)CCCc1ccccc1`, the IC50 was over 1000 µM on Prothrombin, over 1 mM in assay [2], 0.0044 µM against Prolyl endopeptidase and over 1000 µM on Serine protease 1.

Turning to `NCCCC[C@H](NC(=O)[C@@H]1CCCN1C(=O)[C@H](N)Cc1ccccc1)C(=O)c1nccs1`, the Ratio in assay [1] worked out at 4.6. Besides, the IC50 came out at 0.26 µM at Prothrombin and 1.2 µM against Serine protease 1.

As to `NC(N)=NCCC[C@H](NC(=O)[C@@H]1CCCN1C(=O)[C@H](N)Cc1ccccc1)C(=O)c1nccs1`, in assay [1], the Ratio came out at 2.8. Further, the figures for the IC50 at Prothrombin and at Serine protease 1 were 0.0015 µM and 0.0042 µM, respectively.

The molecule `N=C(N)NCCC[C@@H](NC(=O)[C@@H]1CCCCN1C(=O)[C@H](N)Cc1ccccc1)C(=O)c1nccs1` gave an IC50 at Prothrombin of 0.73 µM.

Take `NCCCCC[C@H](NC(=O)[C@@H]1CCCN1C(=O)[C@H](N)Cc1ccccc1)C(=O)c1nccs1`: the Ratio in assay [1] came to 1.1. Moreover, the figures for the IC50 against Prothrombin and at Serine protease 1 were 14 µM and 16 µM, respectively.

With `NCCCC[C@H](NC(=O)[C@@H]1CCCN1C(=O)CCCc1ccccc1)C(=O)c1nccs1`, the IC50 was determined as 46 µM on Prothrombin, 7.8 µM on Prolyl endopeptidase and 2.4 µM on Serine protease 1.
